Laboratory results from patent publication US20240352487A1, “MTOR -TARGETED MODIFICATION AND USES THEREOF” (UNIVERSITÉ LAVAL, priority 2021, published 2024).
“Also recorded” adds a separate entry of the source.

Legend:
mTORC1 signaling = test: mSc-TOSI mTORC1 signaling assay (FACS) in K562 cells; type: cell-based, human
Procedure: (A) Schematic representation of the mScarlet-I mTOR Signaling Indicator (mSc-TOSI) degradation under mTORC1 signaling. (B) mSc-TOSI fluorescence intensity in bulk populations of K562 cells stably expressing the mTORC1 signaling reporter. Where indicated, cells were treated with the indicated concentration of mTOR inhibitor for 24 hours before FACS analysis.
(A) Schematic representation of the mScarlet-I mTOR Signaling Indicator (mSc-TOSI) degradation under mTORC1 signaling. (B) mSc-TOSI fluorescence intensity in homozygous single cell-derived K562 clones harboring the MTOR-F2108L mutation with or without targeted CAR integration. Single cell-derived K562 clones were isolated in methylcellulose-based semi-solid RPMI media supplemented with 100 μM ouabain. Where indicated, cells were treated with the indicated concentration of mTOR inhibitor for 24 hours before FACS analysis.
Active mTORC1 signaling results in rapid phosphorylation of the mSc-TOSI phosphodegron by S6K, ubiquitination, and degradation by the proteasome while its inhibition stabilizes the reporter.
The percentage of fluorescent cells was quantified using a BD LSRII flow cytometer and 1×10^5 cells were analyzed for each condition. […] For mTORC1 signaling assays, cells were treated with the indicated concentration of rapamycin or AZD8055 for 24 hours before analysis. FACS sorting was performed using a BD FACS Aria Fusion flow cytometer for the saturation prime editing experiment and 5×10^5 cells were sorted for each condition. Flow cytometric data visualization and analysis were performed using FlowJo™ software (Tree Star).
We then adapted a fluorescent mTORC1 signaling indicator^34 (mSc-TOSI) to assess the impact of rapamycin on mTORC1 signaling after targeted transgene integration to the MTOR locus. Active mTORC1 signaling results in rapid phosphorylation of the mSc-TOSI phosphodegron by S6K, ubiquitination, and degradation by the proteasome while its inhibition stabilizes the reporter^34 (FIG. 5A). We treated bulk populations of cells harboring the MTOR-F2108L mutation with or without targeted therapeutic transgene integration at the MTOR locus with different concentrations of rapamycin and AZD8055, a second-generation mTOR inhibitor.

K562 cells = test: K562 cell growth in the presence of rapamycin; type: cell-based, human
Procedure: (A) Prime editing and small indels quantification at MTOR as determined by BEAT and TIDE analysis from Sanger sequencing. K562 cells stably expressing the mSc-TOSI reporter were transfected with 0.75 μg of pCMV-PEmax vector, 0.25 μg of epegRNA (tevopreQ1) vector, and 0.1 μg of nick sgRNA vector. Genomic DNA was harvested 3 days post-transfection (before selection) and cells were treated (rapamycin) or not (vehicle) with 0.5 μM rapamycin until all non-resistant cells were eliminated.
K562 cells were obtained from the ATCC (CCL-243) and NALM6 cells stably transduced to express a FLUC-T2A-RFP-IRES-Puro reporter gene cassette (Biosettia). K562 and NALM6 cells were maintained at 37° C. under 5% CO2 in RPMI medium supplemented with 10% FBS, penicillin-streptomycin, and GlutaMAX. Cells were routinely tested for the absence of mycoplasma contamination. Rapamycin (Cayman Chemicals, Cat 53123-88-9) was dissolved at 10 mg/mL in DMSO, working dilutions were prepared in water and stored at −20° C. AZD8055 ([…] Technologies) was dissolved at 10 mM in DMSO, working dilutions were prepared in water and stored at −20° C. DMSO alone was diluted in water and used as vehicle control. Ouabain octahydrate (Sigma) was dissolved at […] in hot water, working dilutions were prepared in water and stored at −20° C. K562 cells (2×10^5 cells/transfection) were transfected using a Lonza 4D Nucleofector™ with a SF nucleofection kit (Lonza) following manufacturer's recommendations with the indicated DNA concentrations. Cells were treated with the indicated concentration of rapamycin 3 days post-nucleofection until all non-resistant cells were eliminated. For the isolation of single cell-derived clones, simultaneous coselection and cloning was performed in methylcellulose-based semi-solid RPMI medium supplemented with 100 μM ouabain for 10 days.
We then designed epegRNAs to validate the new MTOR-F2108 mutations individually. […] These observations confirmed that the five new mutations identified by saturation prime editing conferred resistance to rapamycin.

MTOR locus [1] = test: F2108L edited alleles in CD3+ T cells after rapamycin selection, TIDER; type: cell-based, human; settings: 2 μg dsDNA donor, after rapamycin selection 15 days
Description: (A) Strategy for the CRISPR-driven insertion of the F2108L mutation to the MTOR locus using a linear double-stranded DNA (dsDNA) donor. (B) Schematic representation of the SpCas9 target site and the dsDNA donor sequence harboring the F2108L and PAM mutations (WT sequence: 5′ portion corresponds to SEQ ID NO: 45 and 3′ portion corresponds to SEQ ID NO: 46; G49 donor: 5′ portion corresponds to SEQ ID NO: 47 and 3′ portion corresponds to SEQ ID NO: 48). […] The percentage of edited alleles was quantified by TIDER after selection.
Receptor dimerization is induced with rapamycin. […] HA, homology arm. PA, polyadenylation signal. EGFP, enhanced green fluorescent protein. 2A self-cleaving peptide.
dsDNA donors were produced as described previously^24. The donor sequences were cloned into a cloning vector and PCR amplification (25 cycles) was performed using Kapa-HiFi polymerase. DNA purification was performed by solid-phase reversible immobilization using AMPure XP (Beckman Coulter) magnetic beads. […]
Genomic DNA was extracted with QuickExtract DNA extraction solution (EpiCentre) following manufacturer's recommendations. […] Sanger sequencing was performed on PCR amplicons to quantify the percentage of edited alleles using TIDE and TIDER^28,29. […]

MTOR locus [2] = test: Transgene knock-in at MTOR in CD3+ T cells, FACS quantification; type: cell-based, human
Description: (A) Strategy for CRISPR-driven mScarlet-I gene knock-in to the MTOR locus using a linear double-stranded DNA (dsDNA) donor. […] The percentage of cells expressing the mScarlet-I reporter was quantified by FACS after selection. HA, homology arm. PA, polyadenylation signal. EGFP, enhanced green fluorescent protein. 2A self-cleaving peptide.
(A) Strategy for the CRISPR-driven CAR-2A-EGFP gene knock-in to the MTOR locus using a linear double-stranded DNA (dsDNA) donor. […] The percentage of cells expressing the EGFP reporter was quantified by FACS after selection. HA; homology arm. PA; polyadenylation signal. EGFP; enhanced green fluorescent protein. 2A self-cleaving peptide.
The percentage of cells expressing the EGFP reporter was quantified by FACS after selection. HA, homology arm. PA, polyadenylation signal. EGFP, enhanced green fluorescent protein. 2A self-cleaving peptide.
dsDNA donors were produced as described previously^24. The donor sequences were cloned into a cloning vector and PCR amplification (25 cycles) was performed using Kapa-HiFi polymerase. DNA purification was performed by solid-phase reversible immobilization using AMPure XP (Beckman Coulter) magnetic beads. For ribonucleoprotein complex (RNP) formulation, 100 pmols of sgRNAs (IDT) were mixed with 0.8 μL of 100 mg/mL polyglutamic acid (Sigma) and 50 pmols of SpCas9 nuclease (IDT), as previously described^27. The RNP mix was incubated at 37° C. for 10 minutes and the dsDNA donors were added to the mix and incubated at room temperature for 5 minutes before transfection. Primary CD3^+ T cells (1×10^6 cells/transfection) were transfected using a Lonza 4D Nucleofector™ with a P3 nucleofection kit (Lonza) following manufacturer's recommendations with the indicated DNA concentrations. CD3+ T cells were resuspended in 80 μL media without IL-2 directly after nucleofection and incubated at 37° C. for 15 minutes before transfer into culture media plates. For AAV6 transduction, CD3+ T cells were resuspended in 80 μL media directly after nucleofection and AAV6 vectors were added. Cells were incubated at 37° C. for 8 hours at high cell density before transfer into culture media plates.
The percentage of fluorescent cells was quantified using a BD LSRII flow cytometer and 1×10^5 cells were analyzed for each condition. For antibody staining, K562 cells were incubated with Fc receptor block (eBioscience Cat 16-9161-73) for 20 minutes on ice with PBS and 3% human serum (Sigma). Anti-human CD34 Alexa Fluor 488-conjugated antibody clone QBEnd10 (R and D systems Cat FAB7227G) and anti-human CD52 FITC-conjugated antibody clone HI186 were used for RQR8 and CD52 quantification, respectively. For mTORC1 signaling assays, cells were treated with the indicated concentration of rapamycin or AZD8055 for 24 hours before analysis. […]

[3] = test system: metastatic anaplastic thyroid carcinoma; settings: patient with metastatic anaplastic thyroid carcinoma; cited from earlier work
MTOR locus [4] = test: Transgene knock-in at MTOR in K562 cells, FACS quantification; type: cell-based, human; settings: Rapamycin-treated K562 cells, FACS with antibody staining
Procedure: (A) Strategy for the CRISPR-driven CAR-2A-EGFP gene knock-in to the MTOR locus using a plasmid donor. (B) K562 cells were transfected with 0.5 μg of SpCas9-sgRNA-expressing plasmid and 1 μg of donor plasmid. Cells were treated with 0.5 μM rapamycin 3 days post-transfection until all non-resistant cells were eliminated. The percentage of cells expressing the EGFP reporter was quantified by FACS after selection. HA; homology arm. PA; polyadenylation signal. EGFP; enhanced green fluorescent protein. 2A self-cleaving peptide.
(A) Strategy for the CRISPR-driven RQR8 gene knock-in to the MTOR locus using a plasmid donor. (B) K562 cells were transfected with 0.5 μg of SpCas9-sgRNA-expressing plasmid and 1 μg of donor plasmid harboring. […] The percentage of cells expressing the RQR8 epitope marker was quantified by FACS after selection using an Alexa Fluor 488-conjugated anti-human CD34 antibody. […] (D) Same as in B, but the percentage of cells expressing CD52 was quantified using a FITC-conjugated anti-human CD52 antibody. […]
The percentage of fluorescent cells was quantified using a BD LSRII flow cytometer and 1×10^5 cells were analyzed for each condition. […] Anti-human CD34 Alexa Fluor 488-conjugated antibody clone QBEnd10 (R and D systems Cat FAB7227G) and anti-human CD52 FITC-conjugated antibody clone HI186 were used for RQR8 and CD52 quantification, respectively. […]

**Q.** For `CO[C@H]1C[C@@H]2CC[C@@H](C)[C@@](O)(O2)C(=O)C(=O)N2CCCC[C@H]2C(=O)O[C@H]([C@H](C)C[C@@H]2CC[C@@H](O)[C@H](OC)C2)CC(=O)[C@H](C)/C=C(\C)[C@@H](O)[C@@H](OC)C(=O)[C@H](C)C[C@H](C)/C=C/C=C/C=C/1C` [rapamycin, Rapamycin], which mTORC1 signaling (mTORC1 signaling; K562 cells after prime editing (F2108L) and selection, different concentrations of rapamycin) is on record?
**A.** remained functional

**Q.** What about the mTORC1 signaling (mTORC1 signaling; K562 with F2108L mutation) of the same compound?
**A.** complete rapamycin resistance

**Q.** What about the mTORC1 signaling (mTORC1 signaling; K562 with F2108V and F2108K) of the same compound?
**A.** low levels of signaling

**Q.** And the mTORC1 signaling (mTORC1 signaling; K562 with F21081, F2108M, and F2108G)?
**A.** intermediate levels of signaling

**Q.** What about the mTORC1 signaling (mTORC1 signaling; K562 without epegRNA (pUC19) and with silent F2108F mutation) of the same compound?
**A.** complete mTORC1 signaling inhibition

**Q.** And the mTORC1 signaling (mTORC1 signaling; MTOR-F2108L homozygous K562 clones with or without CAR integration, rapamycin treatment)?
**A.** remained completely functional

**Q.** And the mTORC1 signaling (mTORC1 signaling; adenine base edited K562 cells, in the presence of rapamycin)?
**A.** very low levels of mTORC1 signaling

**Q.** What about the mTORC1 signaling (mTORC1 signaling; bulk K562 cells harboring MTOR-F2108L with or without transgene integration, 50 nM to 5 000 nM rapamycin, 24 hours) of the same compound?
**A.** functional mTORC1 signaling; also recorded: slight mTORC1 signaling decrease

**Q.** And the “resistance of cells to rapamycin” value (K562 cells; ABE8e-targeted K562 cells)?
**A.** partial resistance

**Q.** What about the cell growth (K562 cells; K562 cells harboring MTOR-F2108 substitutions, 0.5 μM rapamycin) of the same compound?
**A.** grew robustly

**Q.** What about the “resistance of cells to rapamycin” value (K562 cells; K562 cells with silent F2108F mutation, 0.5 μM rapamycin) of the same compound?
**A.** no resistance

**Q.** For `COc1ccc(-c2ccc3c(N4CCOC[C@@H]4C)nc(N4CCOC[C@@H]4C)nc3n2)cc1CO` [AZD8055], which “sensitivity of mTORC1 signaling to inhibitor” value (mTORC1 signaling; CRISPR-engineered K562 cells harboring MTOR-F2108L, 24 hours) is on record?
**A.** remained sensitive

**Q.** With “G49: gRNA, MTOR-Intron 45, target AGGTAGGATCTTCAGGCTCC (SEQ ID NO: 6); used as SpCas9 RNP with donor (listed as DNA, chemistry not given here; listed as Homo sapiens)” as the compound, how does the “alleles harboring the F2108L mutation” value (MTOR locus [1]) read?
**A.** up to 63%

**Q.** And the “alleles harboring the PAM mutation” value (MTOR locus [1])?
**A.** ≤ 69%

**Q.** What about the “percentage of CD3+ T cells expressing the mScarlet-I reporter” value (shortened to “percentage”) (MTOR locus [2]; 1 μg dsDNA donor, after rapamycin selection 8 days) of the same compound?
**A.** 21%

**Q.** And the “percentage” value (MTOR locus [2]; 1 μg dsDNA donor, without selection)?
**A.** 11%

**Q.** What about the “percentage” value (MTOR locus [2]; 2 μg dsDNA donor, after rapamycin selection 8 days) of the same compound?
**A.** 31%

**Q.** What about the “percentage” value (MTOR locus [2]; 2 μg dsDNA donor, without selection) of the same compound?
**A.** 18%

**Q.** Which “response duration before relapse” value [3] does the source give for `CO[C@H]1C[C@@H]2CC[C@@H](C)[C@@](O)(O2)C(=O)C(=O)N2CCCC[C@H]2C(=O)O[C@H]([C@H](C)C[C@@H]2CC[C@@H](OCCO)[C@H](OC)C2)CC(=O)[C@H](C)/C=C(\C)[C@@H](O)[C@@H](OC)C(=O)[C@H](C)C[C@H](C)/C=C/C=C/C=C/1C` [everolimus] here?
**A.** 18 month

**Q.** With “RQR8: 136-amino-acid epitope-based marker/suicide gene targeted to MTOR with plasmid donor (SEQ ID NO: 26)” as the compound, how does the transgene expression (MTOR locus [4]) read?
**A.** higher transgene expression
